Laboratory results taken from PubChem BioAssay AID2060903 (Molecular Pharmacology Branch, DTP, NCI, 2025).

System: 377384-186-R-J1-PDC complex spheroid viability
Experiment: Anticancer human tumor 377384-186-R-J1-PDC patient-derived pancreatic carcinoma cell line growth inhibition [RAS]
Settings: for IC50: curve of first compound; for viability, T/C: stronger effect = lower value; active = viability on the fitted dose curve at most 10% of control; inactive = the rest
Outline: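 Tumour cells grown as complex spheroids with HUVEC endothelial cells and mesenchymal stem cells, treated with RAS pathway inhibitor combinations. Each agent spans half-log steps from near clinical Cmax, or 10 microM where Cmax is unknown.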

[1] = second compound 0.000949 µM, first compound 0.0316 µM
[2] = second compound 0.000949 µM, first compound 0.1 µM
[3] = second compound 0.000949 µM, first compound 0.316 µM
[4] = second compound 0.000949 µM, first compound 1 µM
[5] = second compound 0.003 µM, first compound 0.0316 µM
[6] = second compound 0.003 µM, first compound 0.1 µM
[7] = second compound 0.003 µM, first compound 0.316 µM
[8] = second compound 0.003 µM, first compound 1 µM
[9] = second compound 0.00949 µM, first compound 0.0316 µM
[10] = second compound 0.00949 µM, first compound 0.1 µM
[11] = second compound 0.00949 µM, first compound 0.316 µM
[12] = second compound 0.00949 µM, first compound 1 µM
[13] = second compound 0.03 µM, first compound 0.0316 µM
[14] = second compound 0.03 µM, first compound 0.1 µM
[15] = second compound 0.03 µM, first compound 0.316 µM
[16] = second compound 0.03 µM, first compound 1 µM
[17] = second compound 0.0949 µM, first compound 0.0316 µM
[18] = second compound 0.0949 µM, first compound 0.1 µM
[19] = second compound 0.0949 µM, first compound 0.316 µM
[20] = second compound 0.0949 µM, first compound 1 µM
[21] = second compound 0.3 µM, first compound 0.0316 µM
[22] = second compound 0.3 µM, first compound 0.1 µM
[23] = second compound 0.3 µM, first compound 0.316 µM
[24] = second compound 0.3 µM, first compound 1 µM
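Note: spheroids exposed to compounds for seven days before readout.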

CC(=O)OC12COC1CC(O)C1(C)C(=O)C(O)C3=C(C)C(OC(=O)C(O)C(NC(=O)OC(C)(C)C)c4ccccc4)CC(O)(C(OC(=O)c4ccccc4)C21)C3(C)C (stereo unspecified) + CCn1c(-c2cccnc2C(C)OC)c2c3cc(ccc31)N1CCOC(CC(NC(=O)C(C(C)C)N(C)C(=O)C3(F)CCN(C(=O)C#CC(C)(C)N(C)C)CC3)C(=O)N3CCCC(N3)C(=O)OCC(C)(C)C2)C1
< 31.6 nM: IC50 (second compound 0.000949 µM) | IC50 (second compound 0.003 µM) | IC50 (second compound 0.00949 µM) | IC50 (second compound 0.03 µM) | IC50 (second compound 0.0949 µM) | IC50 (second compound 0.3 µM)
inactive: viability, T/C [1] 10.2% | viability, T/C [2] 10.2% | viability, T/C [3] 11% | viability, T/C [4] 14.1% | viability, T/C (second compound 0.000949 µM, first compound 3.16 µM) 14.5% | viability, T/C (second compound 0.000949 µM, first compound 10 µM) 15.6% | viability, T/C [5] 11.1% | viability, T/C [6] 15.1% | viability, T/C [7] 11% | viability, T/C [8] 12.9% | viability, T/C (second compound 0.003 µM, first compound 3.16 µM) 14.7% | viability, T/C (second compound 0.003 µM, first compound 10 µM) 15.9% | viability, T/C [9] 10.5% | viability, T/C [10] 11.6% | viability, T/C [11] 12.5% | viability, T/C [12] 12% | viability, T/C (second compound 0.00949 µM, first compound 3.16 µM) 13.7% | viability, T/C (second compound 0.00949 µM, first compound 10 µM) 14.4% | viability, T/C [13] 9.38% | viability, T/C [14] 11.6% | viability, T/C [15] 12.8% | viability, T/C [16] 12.5% | viability, T/C (second compound 0.03 µM, first compound 3.16 µM) 13.4% | viability, T/C (second compound 0.03 µM, first compound 10 µM) 15.4% | viability, T/C [17] 9.14% | viability, T/C [18] 10.3% | viability, T/C [19] 12.3% | viability, T/C [20] 12.8% | viability, T/C (second compound 0.0949 µM, first compound 3.16 µM) 13.1% | viability, T/C (second compound 0.0949 µM, first compound 10 µM) 12.8% | viability, T/C [21] 6.36% | viability, T/C [22] 8.8% | viability, T/C [23] 9.95% | viability, T/C [24] 11.7% | viability, T/C (second compound 0.3 µM, first compound 3.16 µM) 12.3% | viability, T/C (second compound 0.3 µM, first compound 10 µM) 12%

CCc1c2c(nc3ccc(O)cc13)-c1cc3c(c(=O)n1C2)COC(=O)[C@]3(O)CC + CCn1c(-c2cccnc2C(C)OC)c2c3cc(ccc31)N1CCOC(CC(NC(=O)C(C(C)C)N(C)C(=O)C3(F)CCN(C(=O)C#CC(C)(C)N(C)C)CC3)C(=O)N3CCCC(N3)C(=O)OCC(C)(C)C2)C1
2.42 nM: IC50 (second compound 0.000949 µM)
inactive: viability, T/C (second compound 0.000949 µM, first compound 0.000949 µM) 65.9% | viability, T/C (second compound 0.000949 µM, first compound 0.003 µM) 46.6% | viability, T/C (second compound 0.000949 µM, first compound 0.00949 µM) 18.3% | viability, T/C (second compound 0.003 µM, first compound 0.000949 µM) 71.5% | viability, T/C (second compound 0.003 µM, first compound 0.003 µM) 37.9% | viability, T/C (second compound 0.003 µM, first compound 0.00949 µM) 19.8% | viability, T/C (second compound 0.00949 µM, first compound 0.000949 µM) 75.7% | viability, T/C (second compound 0.00949 µM, first compound 0.003 µM) 35.7% | viability, T/C (second compound 0.00949 µM, first compound 0.00949 µM) 15.8% | viability, T/C (second compound 0.03 µM, first compound 0.000949 µM) 61.3% | viability, T/C (second compound 0.03 µM, first compound 0.003 µM) 34.7% | viability, T/C (second compound 0.03 µM, first compound 0.00949 µM) 14.4% | viability, T/C (second compound 0.0949 µM, first compound 0.000949 µM) 49.1% | viability, T/C (second compound 0.0949 µM, first compound 0.003 µM) 34.9% | viability, T/C (second compound 0.0949 µM, first compound 0.00949 µM) 14.8% | viability, T/C (second compound 0.3 µM, first compound 0.000949 µM) 45.4% | viability, T/C (second compound 0.3 µM, first compound 0.003 µM) 30.3%
1.53 nM: IC50 (second compound 0.03 µM)
< 0.949 nM: IC50 (second compound 0.0949 µM) | IC50 (second compound 0.3 µM)
active: viability, T/C (second compound 0.000949 µM, first compound 0.03 µM) 7.36% | viability, T/C (second compound 0.000949 µM, first compound 0.0949 µM) 3.93% | viability, T/C (second compound 0.000949 µM, first compound 0.3 µM) 1.53% | viability, T/C (second compound 0.003 µM, first compound 0.03 µM) 6.9% | viability, T/C (second compound 0.003 µM, first compound 0.0949 µM) 3.65% | viability, T/C (second compound 0.003 µM, first compound 0.3 µM) 2.05% | viability, T/C (second compound 0.00949 µM, first compound 0.03 µM) 5.59% | viability, T/C (second compound 0.00949 µM, first compound 0.0949 µM) 2.54% | viability, T/C (second compound 0.00949 µM, first compound 0.3 µM) 1.72% | viability, T/C (second compound 0.03 µM, first compound 0.03 µM) 8.65% | viability, T/C (second compound 0.03 µM, first compound 0.0949 µM) 3.55% | viability, T/C (second compound 0.03 µM, first compound 0.3 µM) 1.17% | viability, T/C (second compound 0.0949 µM, first compound 0.03 µM) 5.24% | viability, T/C (second compound 0.0949 µM, first compound 0.0949 µM) 3.02% | viability, T/C (second compound 0.0949 µM, first compound 0.3 µM) 1.67% | viability, T/C (second compound 0.3 µM, first compound 0.00949 µM) 7.93% | viability, T/C (second compound 0.3 µM, first compound 0.03 µM) 4.05% | viability, T/C (second compound 0.3 µM, first compound 0.0949 µM) 2.71% | viability, T/C (second compound 0.3 µM, first compound 0.3 µM) 1.08%
2 nM: IC50 (second compound 0.003 µM) | IC50 (second compound 0.00949 µM)

Nc1ccn(C2OC(CO)C(O)C2(F)F)c(=O)n1 (stereo unspecified) + CCn1c(-c2cccnc2C(C)OC)c2c3cc(ccc31)N1CCOC(CC(NC(=O)C(C(C)C)N(C)C(=O)C3(F)CCN(C(=O)C#CC(C)(C)N(C)C)CC3)C(=O)N3CCCC(N3)C(=O)OCC(C)(C)C2)C1
12.6 nM: IC50 (second compound 0.00949 µM)
11.3 nM: IC50 (second compound 0.000949 µM)
9.29 nM: IC50 (second compound 0.0949 µM)
9.69 nM: IC50 (second compound 0.003 µM)
11.8 nM: IC50 (second compound 0.03 µM)
7.06 nM: IC50 (second compound 0.3 µM)
inactive: viability, T/C (second compound 0.000949 µM, first compound 0.00316 µM) 87.1% | viability, T/C (second compound 0.000949 µM, first compound 0.01 µM) 53.8% | viability, T/C [1] 19.4% | viability, T/C (second compound 0.003 µM, first compound 0.00316 µM) 94.7% | viability, T/C (second compound 0.003 µM, first compound 0.01 µM) 48.4% | viability, T/C [5] 23.4% | viability, T/C [6] 9.1% | viability, T/C (second compound 0.00949 µM, first compound 0.00316 µM) 96.1% | viability, T/C (second compound 0.00949 µM, first compound 0.01 µM) 57.7% | viability, T/C [9] 19.2% | viability, T/C (second compound 0.03 µM, first compound 0.00316 µM) 90.9% | viability, T/C (second compound 0.03 µM, first compound 0.01 µM) 55.3% | viability, T/C [13] 17.6% | viability, T/C (second compound 0.0949 µM, first compound 0.00316 µM) 79.1% | viability, T/C (second compound 0.0949 µM, first compound 0.01 µM) 47.8% | viability, T/C [17] 20.1% | viability, T/C (second compound 0.3 µM, first compound 0.00316 µM) 71.9% | viability, T/C (second compound 0.3 µM, first compound 0.01 µM) 40.6% | viability, T/C [21] 13%
active: viability, T/C [2] 7.57% | viability, T/C [3] 5.68% | viability, T/C [4] 3.18% | viability, T/C [7] 4.5% | viability, T/C [8] 3.68% | viability, T/C [10] 8.08% | viability, T/C [11] 5.38% | viability, T/C [12] 4.57% | viability, T/C [14] 5.8% | viability, T/C [15] 5.88% | viability, T/C [16] 3.65% | viability, T/C [18] 7.12% | viability, T/C [19] 4.37% | viability, T/C [20] 4.2% | viability, T/C [22] 5.77% | viability, T/C [23] 4.01% | viability, T/C [24] 3.34%
